The source of these data is US11141421B2, “Antitumor agent for biliary tract cancer and method for treating biliary tract cancer” (FUJIFILM Corporation, priority 2018, dated 2021).

The test system of one series is tumor. The settings on record: orally administered to mice; cited from earlier work.
The next series concerns bile duct cancer. Kind of series: Administration of Compound A via intravenous injection to bile duct cancer patients; therapeutic effects judged by MRI image diagnosis. The series is classed as in vivo, human. Details: key to Therapeutic effects of the present invention: CR (Complete Response): A state in which the tumor completely disappeared.; PR (Partial Response): A state in which a sum of the sizes of the tumors was reduced by 30% or more.; SD (Stable Disease): A state in which the size of the tumor did not change.; PD (Progressive Disease): A state in which a sum of the sizes of the tumors was increased by 20% or more and also, the size was increased by 5 mm or more even at an absolute value, or a new lesion appeared. As to the method:
This liquid pharmaceutical preparation was used in the subsequent therapy. Besides, the therapy was carried out at the University of Texas MD Anderson Cancer Center (hereinafter referred to as MDACC), and at Sarah Cannon Research Institute (hereinafter referred to as SCRI) in Denver, State of Colorado, U.S.A.
(§1) A medication cycle consisting of administration of Compound A via intravenous injection once a week from the 1st week to the 3rd week and cessation of medication in the 4th week was repeated to bile duct cancer patients Specifically, 28 days was set at one cycle, and on the 1st day, 8th day and 15th day, Compound A was administered to the patients. This cycle consisting of 28 days was repeated. A single dose of compound A was set from 40 mg/m^2 to 135 mg/m^2.
The therapeutic effects were judged according to the following criteria.
Evaluation targets were confirmed by performing image diagnosis using MRI (magnetic resonance imaging), and were then judged according to the following criteria:
CR (Complete Response): A state in which the tumor completely disappeared.
PR (Partial Response): A state in which a sum of the sizes of the tumors was reduced by 30% or more.
PD (Progressive Disease): A state in which a sum of the sizes of the tumors was increased by 20% or more and also, the size was increased by 5 mm or more even at an absolute value, or a new lesion appeared.

Series [1] in a line: Side effects / drug associated AE in the clinical trial of Compound A. It is filed as in vivo, human. As to the method:
as §1
Bile duct cancer patient 6 is intrahepatic cholangiocarcinoma. […] Further, due to neutropenia, the dose was changed to 67.5 mg/m^2. Thereafter, SD could be maintained for 34 weeks or more.

With `Nc1ccn([C@@H]2S[C@H](CO)[C@@H](O)[C@@H]2F)c(=O)n1` [Compound A, 1-(2-deoxy-2-fluoro-4-thio-β-D-arabinofuranosyl)cytosine], the antitumor activity entry in the series on tumor was “strong antitumor activity”. The “Therapeutic effects of the present invention” value in the series with bile duct cancer (bile duct cancer patient 1 (intrahepatic bile duct cancer), single dose 40 mg/m^2 iv, days 1, 8, 15 of 28-day cycle) was “PR (PR (Partial Response): A state in which a sum of the sizes of the tumors was reduced by 30% or more.)”; with bile duct cancer (bile duct cancer patient 2 (intrahepatic bile duct cancer), single dose 60 mg/m^2 iv), “PR (PR (Partial Response): A state in which a sum of the sizes of the tumors was reduced by 30% or more.)”; with bile duct cancer (bile duct cancer patient 3 (bile duct cholangiocarcinoma), initial dose 60 mg/m^2, changed to 90 mg/m^2), “SD”; in the series on bile duct cancer (bile duct cancer patient 4, single dose 90 mg/m^2 iv), “PD (PD (Progressive Disease): A state in which a sum of the sizes of the tumors was increased by 20% or more and also, the size was increased by 5 mm or more even at an absolute value, or a new lesion appeared.)”; with bile duct cancer (bile duct cancer patient 5, single dose 90 mg/m^2 iv) it was “SD”; in the series with bile duct cancer (bile duct cancer patient 6 (intrahepatic cholangiocarcinoma), single dose 90 mg/m^2 in Table 1 (text: 135, then 90, then 67.5 mg/m^2)), “SD”. For the same compound, the “Therapeutic effect after dose increase” value in the series with bile duct cancer (bile duct cancer patient 1, single dose increased to 60 mg/m^2 or 90 mg/m^2) is “PR (PR (Partial Response): A state in which a sum of the sizes of the tumors was reduced by 30% or more.)”. The “time for which SD could be maintained” value in the series on bile duct cancer (bile duct cancer patient 3, initial dose 60 mg/m^2, changed to 90 mg/m^2) is recorded as at least 32 weeks; in the series on bile duct cancer (bile duct cancer patient 6, after dose changes 135 to 90 to 67.5 mg/m^2), at least 34 weeks. Besides, in series [1] (bile duct cancer patient 6, dose 90 mg/m^2 (then changed to 67.5 mg/m^2)), the “side effect leading to further dose change” value is given as “neutropenia”. For the same compound, the side effects observed entry in series [1] (bile duct cancer patient 6, initial dose 135 mg/m^2) is “hypotension and suspected bacteremia”. The “most common drug associated AE among two or more patients” value in series [1] (clinical trial, patients including bile duct cancer patients, 40 to 135 mg/m^2 iv) was “fever, nausea, chills, itch, irritating, dry skin, skin separation, and fatigue”.
